Measurements as given in PMC12640663 (Chemmedchem, 2025).
Entries after “also recorded” stand apart in the source; their conditions may differ.

Assays:
hPTP1B1–400 [1] = target: T1, hPTP1B1–400 (Homo sapiens, UniProt P18031); test: PTP1B activity assay, long form hPTP1B1–400 (p‐NPP); assay type: biochemical; set-up: hPTP1B1–400 (the long form with an intrinsically disordered C‐terminal regulatory domain); details: ± S.D; p‐NPP substrate, 15 min at 37 °C, triplicate
T1 sequence (P18031 1-400): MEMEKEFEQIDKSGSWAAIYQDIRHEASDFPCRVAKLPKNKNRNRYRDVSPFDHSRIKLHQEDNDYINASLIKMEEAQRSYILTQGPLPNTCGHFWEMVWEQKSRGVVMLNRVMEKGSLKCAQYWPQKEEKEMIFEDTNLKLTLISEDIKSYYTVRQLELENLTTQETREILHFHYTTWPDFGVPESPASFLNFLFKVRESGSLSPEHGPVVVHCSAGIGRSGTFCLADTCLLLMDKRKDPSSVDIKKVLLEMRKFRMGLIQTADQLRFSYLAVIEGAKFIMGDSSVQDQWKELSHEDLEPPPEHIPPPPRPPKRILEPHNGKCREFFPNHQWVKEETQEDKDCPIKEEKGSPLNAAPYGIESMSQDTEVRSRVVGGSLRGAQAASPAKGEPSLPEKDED
Procedure: The inhibitory activity of PTP1B was assessed using two enzyme variants: hPTP1B1–285 (the short form with an N‐terminal catalytic domain) and hPTP1B1–400 (the long form with an intrinsically disordered C‐terminal regulatory domain). […] According to Coronel‐Tovar et al., the disordered region of the C‐terminal domain plays a crucial role in modulating PTP1B enzymatic activity.^[ [30] ^] […] Different concentrations of the compounds were evaluated to determine their IC50 values (Table 1 ).
Recombinant human protein tyrosine phosphatase 1B, consisting of 400 and 285 amino acid residues, was used.^[ [35] ^] […] Aliquots of 0–10 µL of the test compounds (triplicate) were taken and incubated for 15 min at 37 °C with 85 µL of Tris buffer solution (50 mM, pH 6.8) containing PTP1B enzyme and 5 µL of p‐nitrophenyl phosphate substrate (p‐NPP, 10 mM). Absorbance was then measured at a wavelength of 405 nm. The inhibitory activity was determined according to Equation (1). (1) % PTP1B=(A405b/A405c)×100 where % PTP1B: Is the percentage of inhibition. A 405c: Is the corrected absorbance of the blank (A 405initial–A 405final). A 405b: Is the corrected absorbance of the compounds (A 405control–A 405compound).

hPTP1B1–400 [2] = target: T1, hPTP1B1–400; test: Kinetic studies of PTP1B (hPTP1B1–400);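 note: enzyme kinetics run across a range of substrate and inhibitor levels, control lacking inhibitor, triplicate runs, parameters derived by fitting Michaelis–Menten style equations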
Procedure: Kinetic analyses were performed at various substrate and inhibitor concentrations.
The negative control was prepared with the enzyme and substrate in the absence of the inhibitor. Experiments were conducted in triplicate.^[ [30] ^] […] The kinetic parameters of enzyme inhibition, K m and V max, were determined by fitting the data to the Michaelis‐Menten model, Equation (3) (OriginPro 2018 (64‐bit) SR1). (3) y=VmaxX/Km+X´ where V max: is the maximum velocity, X: is the inhibitor concentration, K m: Michaelis constant.
(4) y=Vmax(X)/(Km/1+I/Ki)+X where V max: maximum velocity, X: substrate concentration, I: inhibitor concentration, K m: Michaelis constant, K i : inhibition constant.

TCPTP = target: T2, TCPTP (Homo sapiens, UniProt P17706); test: T‐cell protein tyrosine phosphatase (TCPTP) activity assay (p‐NPP); assay type: biochemical; details: ± S.D; assessed up to 100 μM; read-out: TCPTP IC50
T2 sequence (P17706 1-415): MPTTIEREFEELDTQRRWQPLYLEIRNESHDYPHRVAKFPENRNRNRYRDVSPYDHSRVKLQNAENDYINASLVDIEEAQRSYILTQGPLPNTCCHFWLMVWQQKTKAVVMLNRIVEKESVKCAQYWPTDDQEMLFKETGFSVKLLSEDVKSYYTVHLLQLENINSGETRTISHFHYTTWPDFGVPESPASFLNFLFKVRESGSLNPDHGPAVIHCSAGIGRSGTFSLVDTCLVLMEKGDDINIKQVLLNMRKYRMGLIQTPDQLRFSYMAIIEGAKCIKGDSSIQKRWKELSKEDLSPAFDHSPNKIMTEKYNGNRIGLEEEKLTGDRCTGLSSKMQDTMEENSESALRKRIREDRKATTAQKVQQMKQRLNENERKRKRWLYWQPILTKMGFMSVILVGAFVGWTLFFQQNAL
Procedure: The effectiveness and safety of protein tyrosine phosphatase (PTP) inhibitors depend on their specificity. PTP1B and TCPTP serve different functions: PTP1B is involved in metabolism and cancer, while TCPTP regulates immune function. Inhibiting TCPTP could impact the immune response, whereas inhibiting PTP1B may benefit metabolic diseases without these side effects.^[ [20] ^, [34] ^, [35] ^] […] These compounds were assessed up to 100 μM (Table 1).
TCPTP enzyme reported by Mendoza et al. was used for this assay. […] Aliquots of 0–10 µL (triplicate) of the newly synthesized compounds, positive control, and solvent were taken. These were incubated with 85 µL of enzyme solution (Tris, 50 mM, pH 6.8, TCPTP) and 5 µL of substrate (p‐NPP, 10 mM) for 15 min at 37 °C.

[3] = tested on: insulin‐resistant HepG2 cells; test: Insulin‐resistant HepG2 model, western blotting of PTP1B and pAKT; assay type: cell-based; details: 24 h, western blot
Procedure: Subsequently, we evaluated the same compounds in a HepG2 insulin‐resistant model.
Bar graphs represent the mean ± SEM of normalized values. The control levels were set at 1. T‐test significance *p < 0.05, when compared with control (DMSO). Statistical analyses were carried out using GraphPad Prism 8.0.
For the resistant insulin model using HepG2 cells, the following reagents were acquired from Sigma–Aldrich (Toluca, MEX, Mexico, and St. Louis, MO, USA): Insulin (I2643), Dulbecco's modified eagle's medium (DMEM) low glucose media (D5523), Trypsin‐EDTA solution (T4174), antibiotic‐antimycotic solution(A5955), dimethyl sulfoxide (DMSO‐D8418), sodium deoxycholate (D6750), triethylammonium bicarbonate buffer 1 M (TEAB‐T7408), glutaraldehyde 25% (G6275), acetic acid (695092), and crystal violet (C0775). The bicinchoninic acid protein quantitation kit (23225) and the Halt Cocktail with protease and phosphatase inhibitors (1861281) were acquired from ThermoFisherScientific. Fetal bovine serum (26140–079) was from Gibco. The chemiluminescent solution (170–5061) was acquired from Biorad. Rabbit anti‐PTP1B (5311S) and mouse anti‐β actin (3700S) primary antibodies were obtained from Cell Signaling, and secondary antibodies coupled with horseradish peroxidase were from Jackson laboratories (rabbit‐111−035, mouse‐115–035).
Treated cells with compounds were washed twice with 1 mL of PBS, and protein was extracted using 500 µL of a buffer solution containing 10% sodium deoxycholate in 10% TEAB, supplemented with a protease and phosphatase inhibitor cocktail. The extracts were heated to 80 °C for 5 min and disaggregated through passages with an insulin syringe. The cell extracts were centrifuged at 15,000 rpm for 15 min at 4 °C, and the supernatant was collected. Protein quantification was performed using the bicinchoninic acid assay method, and aliquots were prepared for western blotting. SDS/PAGE was conducted, and proteins were transferred onto a nitrocellulose membrane. The membrane was then blocked with 10% skimmed milk in TBST for 1 h and incubated overnight with primary antibodies (1:400 dilution). Secondary antibodies coupled to horseradish peroxidase were diluted 1:2000, and membranes were incubated for 1 h. The blots were documented using the ChemiDoc MP (Bio‐Rad), and densitometric analysis was performed using ImageJ (U.S. National Institutes of Health). Statistical analyses were carried out using GraphPad Prism 8.0.

[4] = ± S.D, hPTP1B1–400 with inhibitor

CC1(C(=O)O)CCC2(C)CCC3(C)C(=CC(=O)C4C5(C)Cc6c([nH]c7ccc(C(F)(F)F)cc67)C(C)(C)C5CCC43C)C2C1 (stereo not shown) [Compound 3c]
IC50 (hPTP1B1–400 [1]): 2060 ± 80 nM
Ki (hPTP1B1–400 [2]; K i, ± S.D, hPTP1B1–400, p‐NPP 0.1 to 0.5 mM): 71 ± 8 nM
Inhibition type (hPTP1B1–400 [2]; hPTP1B1–400): uncompetitive inhibition
K m (hPTP1B1–400 [2]; [4]): 520 ± 70 µM
V max (hPTP1B1–400 [2]; [4]): 0.62 ± 0.05 mM/min
IC50 (TCPTP): > 100000 nM
AKT phosphorylation (pAKT) levels [3]: slight increase; also recorded: slightly increased pAKT levels
